From PubChem BioAssay AID1117324 (Cheminformatics & Chemogenomics Research Group (CCRG), …, 2015)
The source made the active and inactive calls. How the calls were made is not given here. *1 amine or outer side, *2 acyl side, *3 side chain or, on linkers, in order; H or OH if unused. Where a SMILES comes first, the peptide text is derived from it. Bridges are numbered along the chain shown (N, C = ends). Roman numbers before positions name the chains, in order. [ ]: non-standard residue; d: D form. Actinocin(9to1) = Cc1c2oc3c(C)ccc(C(=O)[*:1])c3nc-2c(C(=O)[*:2])c(N)c1=O; NMeV = CN[C@H](C(=O)O)C(C)C; Sar = CNCC(=O)O

Test system: VEGF-stimulated ADSC/ECFC co-culture, nuclear area imaging
Test: nuclear area loss in endothelial-stromal co-culture, dose response, cell-based, VEGF stimulation, IC50 (AID 1117324)

| Compound | IC50 |
| --- | --- |
| Nc1c2ccccc2nc2ccccc12 | > 10 µM (inactive) |
| CC[C@@]1(O)C(=O)OCc2c1cc1n(c2=O)Cc2c-1nc1ccccc1c2/C=N/OC(C)(C)C | 0.799 µM |
| O=C(CBr)Nc1ccc(Cl)cc1C(=O)c1ccccc1F | > 10 µM (inactive) |
| CCCCN1CCCC1C(=O)Nc1c(C)cc(C)cc1C (stereo not drawn) | > 10 µM (inactive) |
| Cc1cc(=O)c2c(O)c3c(O)cc(=O)c4c3c3c(cc(O)c1c23)C(C)(C)C=4O | 2.07 µM |
| Cc1c(N)cccc1C(F)(F)F | > 10 µM (inactive) |
| COC(=O)N[C@H](C(=O)N[C@@H](Cc1ccccc1)[C@@H](O)CN(Cc1ccc(-c2ccccn2)cc1)NC(=O)[C@@H](NC(=O)OC)C(C)(C)C)C(C)(C)C | > 10 µM (inactive) |
| CCOC(=O)C=C(C)C=CC[C@@H](C)CCCC(C)C | > 10 µM (inactive) |
| CCCCc1ccc2nc(NC(=O)OC)[nH]c2c1 | > 10 µM (inactive) |
| CN1CCN(CCCN2c3ccccc3Sc3ccc(C(F)(F)F)cc32)CC1 | > 10 µM (inactive) |
| CC[C@]1(O)C[C@@H]2CN(CCc3c([nH]c4ccccc34)[C@@](C(=O)OC)(c3cc4c(cc3OC)N(C)[C@H]3[C@@](O)(C(=O)OC)[C@H](OC(C)=O)[C@]5(CC)C=CCN6CC[C@]43[C@@H]65)C2)C1 | > 10 µM (inactive) |
| O=C1c2c(O)cccc2Cc2cccc(O)c21 | > 10 µM (inactive) |
| CC(C)(C)CC(C)(C)c1ccc(O)cc1 | 9.11 µM (inactive) |
| CCCCCCCCCCCCCC[N+](C)(C)Cc1ccccc1 | 8.36 µM (inactive) |
| O=C1C(I)=CC(=C(c2cc(I)c(O)c(I)c2)c2ccccc2C(=O)O)C=C1I | > 10 µM (inactive) |
| O=S(c1cc(Cl)cc(Cl)c1O)c1cc(Cl)cc(Cl)c1O | > 10 µM (inactive) |
| Clc1ccccc1C(c1ccccc1)(c1ccccc1)n1ccnc1 | > 10 µM (inactive) |
| OCCN1CCN(CCCN2c3ccccc3Sc3ccc(C(F)(F)F)cc32)CC1 | > 10 µM (inactive) |
| CN(C)CCCN1c2ccccc2Sc2ccc(Cl)cc21 | > 10 µM (inactive) |
| Cc1cc(O)c2ccccc2c1O | 9.85 µM (inactive) |
| COc1ccccc1N1CCN(CC(O)COc2cc(OC)c(OC)c(OC)c2)CC1 (stereo not drawn) | > 10 µM (inactive) |

| Compound | IC50 |
| --- | --- |
| Cc1cc(C(C#N)c2ccc(Cl)cc2)c(Cl)cc1NC(=O)c1cc(I)cc(I)c1O (stereo not drawn) | 7.36 µM (inactive) |
| CCCCCCCCCCCC[N+](C)(C)CCOc1ccccc1 | 7.29 µM (inactive) |
| COC(=O)Nc1nc2ccc(C(=O)c3ccccc3)cc2[nH]1 | > 10 µM (inactive) |
| Clc1ccc(Nc2nnc(Cc3ccncc3)c3ccccc23)cc1 | > 10 µM (inactive) |
| CC=CC1C(C(=O)OCc2c(F)c(F)c(COC)c(F)c2F)C1(C)C (stereo not drawn) | > 10 µM (inactive) |
| COc1cc(-c2ccc(=O)[nH]n2)ccc1OC(F)F | > 10 µM (inactive) |
| CN1CC[C@H](c2c(O)cc(O)c3c(=O)cc(-c4ccccc4Cl)oc23)[C@H](O)C1 | 0.328 µM |
| O=[N+]([O-])c1ccc(Oc2ccc(N=C=S)cc2)cc1 | > 10 µM (inactive) |
| O=C1OC(OC(=O)c2cccnc2Nc2cccc(C(F)(F)F)c2)c2ccccc21 (stereo not drawn) | > 10 µM (inactive) |
| COc1ccc(-c2ccc3cc(C(=O)O)ccc3c2)cc1C12CC3CC(CC(C3)C1)C2 | > 10 µM (inactive) |
| Cc1c(O)cccc1C(=O)N[C@@H](CSc1ccccc1)[C@H](O)CN1C[C@H]2CCCC[C@H]2C[C@H]1C(=O)NC(C)(C)C | > 10 µM (inactive) |
| O=C(OCc1ccccc1)c1cccnc1 | > 10 µM (inactive) |
| Cc1nc(Nc2ncc(C(=O)Nc3c(C)cccc3Cl)s2)cc(N2CCN(CCO)CC2)n1 | > 10 µM (inactive) |
| CN1CCN(CCCN2c3ccccc3Sc3ccc(S(=O)(=O)N(C)C)cc32)CC1 | > 10 µM (inactive) |
| O=c1[nH]c(=O)n([C@H]2C[C@H](O)[C@@H](CO)O2)cc1F | > 10 µM (inactive) |
| COc1cc(NCc2ccc3nc(N)nc(N)c3c2C)cc(OC)c1OC | > 10 µM (inactive) |
| CCCCCCCCCCCCCCCC[N+](C)(C)Cc1ccccc1 | > 10 µM (inactive) |
| CC[C@@H]([C@H](C)O)n1ncn(-c2ccc(N3CCN(c4ccc(OC[C@@H]5CO[C@@](Cn6cncn6)(c6ccc(F)cc6F)C5)cc4)CC3)cc2)c1=O | > 10 µM (inactive) |
| CCCCCCCCCCCCCCCC(=O)OCC=C(C)C=CC=C(C)C=CC1=C(C)CCCC1(C)C | > 10 µM (inactive) |
| C#C[C@]1(O)CC[C@@H]2[C@@H]3CCC4=CCCC[C@@H]4[C@H]3C(=C)C[C@@]21CC | 9.57 µM (inactive) |
| CCOC(=O)[C@H](CCc1ccccc1)N[C@@H](C)C(=O)N1C(=O)N(C)C[C@H]1C(=O)O | > 10 µM (inactive) |

| Compound | IC50 |
| --- | --- |
| COCCOC(=O)C1=C(C)NC(C)=C(C(=O)OC/C=C/c2ccccc2)C1c1cccc([N+](=O)[O-])c1 (stereo not drawn) | > 10 µM (inactive) |
| CC(C)(C)C(=O)OCOP(=O)(COCCn1cnc2c(N)ncnc21)OCOC(=O)C(C)(C)C | > 10 µM (inactive) |
| CCOC(=O)NC(C)(C)Cc1ccc(Cl)cc1 | > 10 µM (inactive) |
| N/C(=N\N=C\c1ccc(Cl)cc1)N/N=C/c1ccc(Cl)cc1 | > 10 µM (inactive) |
| CC(=O)Oc1ccccc1C(=O)Nc1ncc([N+](=O)[O-])s1 | > 10 µM (inactive) |
| CN(Cc1cnc2nc(N)nc(N)c2n1)c1ccc(C(=O)N[C@@H](CCC(=O)O)C(=O)O)cc1 | > 10 µM (inactive) |
| Cc1c2oc3c(C)ccc(C(=O)N[C@@H]4C(=O)N[C@H](C(C)C)C(=O)N5CCC[C@H]5C(=O)N(C)CC(=O)N(C)[C@@H](C(C)C)C(=O)O[C@@H]4C)c3nc-2c(C(=O)N[C@@H]2C(=O)N[C@H](C(C)C)C(=O)N3CCC[C@H]3C(=O)N(C)CC(=O)N(C)[C@@H](C(C)C)C(=O)O[C@@H]2C)c(N)c1=O (I: T[dV]P[Sar][NMeV] / II: T[dV]P[Sar][NMeV]; ester I:1-I:C, II:1-II:C; linker I:N-II:N via Actinocin(9to1)) | 0.0403 µM |
| C=CCCCCCCCCC(=O)OC | > 10 µM (inactive) |
| Cc1onc(-c2c(Cl)cccc2Cl)c1C(=O)Cl | > 10 µM (inactive) |
| S=c1nc[nH]c2nc[nH]c12 | > 10 µM (inactive) |
| c1ccc2c(c1)Sc1ccccc1N2CC1CN2CCC1CC2 (stereo not drawn) | > 10 µM (inactive) |
| CCc1c2c(nc3ccc(OC(=O)N4CCC(N5CCCCC5)CC4)cc13)-c1cc3c(c(=O)n1C2)COC(=O)[C@]3(O)CC | 8.12 µM (inactive) |
| CNS(=O)(=O)CCc1ccc2[nH]cc(C3CCN(C)CC3)c2c1 | > 10 µM (inactive) |
| CC(=O)Oc1cccc2c1C(=O)c1c(OC(C)=O)cc(C(=O)O)cc1C2=O | > 10 µM (inactive) |
| CO[C@@]12[C@H](COC(N)=O)C3=C(C(=O)C(C)=C(N)C3=O)N1C[C@@H]1N[C@@H]12 | 5.96 µM (inactive) |
| Cc1cc2nc3ccc(=[N+](C)C)cc-3sc2cc1N | 8.15 µM (inactive) |
| CCC(C(=O)OCCOCCN(CC)CC)c1ccccc1 (stereo not drawn) | > 10 µM (inactive) |
| CC(=O)N(CC(O)CN(C(C)=O)c1c(I)c(C(=O)NCC(O)CO)c(I)c(C(=O)NCC(O)CO)c1I)c1c(I)c(C(=O)NCC(O)CO)c(I)c(C(=O)NCC(O)CO)c1I (stereo not drawn) | > 10 µM (inactive) |
| CSc1ccc2c(c1)C(N1CCN(C)CC1)Cc1ccccc1S2 (stereo not drawn) | > 10 µM (inactive) |
| Cc1c(C(=O)NN2CCCCC2)nn(-c2ccc(Cl)cc2Cl)c1-c1ccc(Cl)cc1 | > 10 µM (inactive) |
| O=C1C(=O)c2ccccc2C(O)=C1C1CCC(c2ccc(Cl)cc2)CC1 (stereo not drawn) | > 10 µM (inactive) |
